Where a name gives a salt, the structure may show the parent alone.

The values that follow come from patent publication EP1179529A1, “NOVEL HYDROXAMIC ACID DERIVATIVES” (Daiichi Fine Chemical Co., Ltd., priority 1999, dated 2000).

Experiment [1] has as its target T1, MMP-1 (Homo sapiens, UniProt P03956).
T1 sequence (P03956 100-469): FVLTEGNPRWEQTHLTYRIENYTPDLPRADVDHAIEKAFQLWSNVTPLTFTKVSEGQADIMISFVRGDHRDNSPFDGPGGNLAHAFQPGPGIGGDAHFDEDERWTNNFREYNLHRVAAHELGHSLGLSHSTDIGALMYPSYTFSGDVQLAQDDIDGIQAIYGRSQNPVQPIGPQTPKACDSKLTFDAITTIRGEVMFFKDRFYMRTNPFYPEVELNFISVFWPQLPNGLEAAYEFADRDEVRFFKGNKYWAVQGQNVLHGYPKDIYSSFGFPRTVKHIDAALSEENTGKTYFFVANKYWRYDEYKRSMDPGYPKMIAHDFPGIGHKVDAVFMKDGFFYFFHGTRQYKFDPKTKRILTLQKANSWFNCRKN
The experiment is described as follows: Assay for inhibition of collagenase. Format: biochemical. The conditions noted are these: human fibroblast collagenase activated with APMA; substrate fluorescein-labeled bovine type I collagen; 35°C, 2 hours, pH 7.5. How it is done: (§1) Described below are assays for biological activities of the compounds according to the present invention, formulations, dosage forms and dosage levels thereof, and miscellaneous matters. The efficacy of the compounds represented by the formula (I) according to the present invention as inhibitors of human fibroblast collagenase (metalloproteinase involved in the breakdown of tissues) is determined by a procedure based on the method of Y. Murawaki et al., Journal of Hepatology, 18, p328-334 (1993). The efficacy of the compounds (I) of this invention as inhibitors of human fibroblast stromelysin is determined by a procedure based on the method of S. S. Twining, Anal. Biochem., 143, p30 (1984). The assay results obtained are shown hereinbelow, together with biological examples which illustrate embodiments of the assay protocols.
The efficacy of compounds of the present invention to act as inhibitors of human fibroblast collagenase was determined by the procedure of Y. Murawaki et al. (Journal of Hepatology, 18, p.328-334, 1993).
Procollagenase was activated by incubation with 2 mM 4-aminophenylmercuric acetate (APMA) at 35°C for 2 hours. The inhibition was assayed using, as a substrate, fluorescein-labeled bovine type I collagen. To a solution of the substrate (0.5 mg/ml) in a 50 mM Tris-HCl buffer, pH 7.5, containing 0.4M aqueous sodium chloride and 10 mM aqueous calcium chloride was added the activated collagenase. The resultant solution was incubated at 35°C for 2 hours. The digestion of the substrate with the enzyme was stopped by addition of 80 mM o-phenanthroline, followed by addition of a porcine elastase solution formed by dissolving 25µ g/ml porcine elastase in the aforementioned Tris-HCl buffer. The mixture was incubated at 37°C for 10 minutes. To the resulting solution was added 70% ethanol, and a 170 mM Tris-HCl buffer, pH 9.5, containing 0.67 M aqueous sodium chloride. Undigested substrates were precipitated by centrifugation at 3000 x g for 20 minutes. The supernatant was collected and the fluorescence was read using an excitation wavelength of 495 nm and an emission wavelength of 520 nm. The inhibitory potency of the compounds was calculated. IC50 represents the concentration of each test compound requited for 50% inhibition of cleavage of substrates by the enzyme alone. The compounds of the present invention have potent inhibitory activities (Table 1).

The target of experiment [2] is MMP-3 (Homo sapiens, UniProt P08254). The experiment can be described thus: Assay for inhibition of stromelysin. Format: biochemical. The conditions noted are these: human fibroblast stromelysin activated with human plasmin; substrate fluorescein-labeled casein; 37°C, 2 hours, pH 7.8. The protocol:
as §1
The efficacy of compounds of the present invention to act as inhibitors of human fibroblast stromelysin was determined by the procedure of Twining (Anal. Biochem., 143, p.30, 1984).
Prostromelysin was activated by incubation with 20µ g/ml human plasmin at 37°C for 2 hours, and the reaction was stopped by addition of 2.8 mg/ml aqueous diisopropyl fluorophosphate. The inhibition was assayed using, as a substrate, fluorescein-labeled casein. To a solution of the substrate (1 mg/ml) in a 50 mM Tris-HCl buffer, pH 7.8, containing 10mM aqueous calcium chloride was added the activated stromelysin. The resultant solution was incubated at 37°C for 2 hours. The digestion of the substrate with the enzyme was stopped by addition of 5% trichloroacetic acid. Undigested substrates were precipitated by centrifugation at 3000 x g for 20 minutes. The supernatant was collected, followed by addition of a 0.5M Tris-HCl buffer, pH 8.5. The fluorescence was read using an excitation wavelength of 495 nm and an emission wavelength of 520 nm. The inhibitory potency of the compounds was calculated. IC50 represents the concentration of each test compound requited for 50% inhibition of cleavage of substrates by the enzyme alone. […]

Sequence of MMP-3 (P08254 100-477): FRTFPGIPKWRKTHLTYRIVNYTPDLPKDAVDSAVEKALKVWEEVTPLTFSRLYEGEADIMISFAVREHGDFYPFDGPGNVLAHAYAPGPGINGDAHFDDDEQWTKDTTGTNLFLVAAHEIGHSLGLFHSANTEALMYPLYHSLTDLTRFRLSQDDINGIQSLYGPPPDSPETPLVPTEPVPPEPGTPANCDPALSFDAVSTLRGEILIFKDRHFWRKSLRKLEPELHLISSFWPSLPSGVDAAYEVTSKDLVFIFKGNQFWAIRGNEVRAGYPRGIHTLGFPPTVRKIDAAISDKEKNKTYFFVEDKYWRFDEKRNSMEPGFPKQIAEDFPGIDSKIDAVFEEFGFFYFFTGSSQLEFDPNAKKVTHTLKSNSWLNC

Turning to `COC(=O)[C@H](Cc1ccc(CN)cc1)NC(=O)[C@H](CC(C)C)[C@H](CCCc1ccccc1)C(=O)NO` [Compound No. 7, N^a-[4-(N-Hydroxyamino)-2(R)-isobutyl-3(S)-(3-phenylpropyl)-succinyl]-L-4'-aminomethylphenylalanine methyl ester · 1 acetate], the IC50 in experiment [1] worked out at 167 nM. This counts as sub-micromolar. On the same count and under the same terms, in the case of `CC(C)C[C@@H](C(=O)N[C@@H](Cc1ccc(CN)cc1)C(=O)O)[C@H](CCCc1ccccc1)C(=O)NO` [Compound No. 8, N^a-[4-(N-Hydroxyamino)-2(R)-isobutyl-3(S)-(3-phenylpropyl)-succinyl]-L-4'-aminomethylphenylalanine · 1 hydrochloride] it was 340 nM. In the case of `COC(=O)[C@H](Cc1ccc(CNC(C)=N)cc1)NC(=O)[C@H](CC(C)C)[C@H](CCCc1ccccc1)C(=O)NO` [Compound No. 9, N^a-[4-(N-Hydroxyamino)-2(R)-isobutyl-3(S)-(3-phenylpropyl)-succinyl]-L-4'-acetimidoyliminomethylphenylalanine methyl ester 1 hydrochloride], the 50% inhibitory concentration (IC50) in experiment [1] stood at 30 nM; in experiment [2], 20 nM. Consider `CC(=N)NCc1ccc(C[C@H](NC(=O)[C@H](CC(C)C)[C@H](CCCc2ccccc2)C(=O)NO)C(=O)O)cc1` [Compound No. 10, N^a-[4-(N-Hydroxyamino)-2(R)-isobutyl-3(S)-(3-phenylpropyl)-succinyl]-L-4'-acetimidoyliminomethylphenylalanine · 1 acetate], for which the figures for the IC50 in experiment [1] and in experiment [2] were 500 nM and 70 nM, respectively. For `CC(C)C[C@@H](C(=O)N[C@@H](Cc1ccc(CN)cc1)C(=O)O)[C@H](CCCc1ccccc1)C(=O)NO` [Compound No. 11, N^a-[4-(N-Hydroxyamino)-2(R)-isobutyl-3(S)-(3-phenylpropyl)-succinyl]-L-4'-aminomethylphenylalanine], in that order: 418 nM and 29 nM.

The IC50 is the concentration needed to halve the response being measured. Low readings indicate inhibition by little substance, high ones a need for much substance.
